Assay results: patent publication US11286242B2 (priority 2018, dated 2022)

How the values were obtained:
Pyricularia oryzae = assay: microbe, parasite or virus in culture; assay type: cell-based; conditions: 168 h, read-out: control compared to the untreated check
Septoria lycopersici = Septoria lycopersici (leaf spot of tomato) radial mycelial growth on Potato Dextrose Agar; assay type: cell-based; conditions: 300 ppm, 25° C., 70% relative humidity, seven days
Procedure: Example 6: Septoria lycopersici (Leaf Spot of Tomato)
(§1) Compounds were dissolved in 0.3% DMSO & then added to Potato Dextrose Agar medium just prior to dispensing it into petri dishes. 5 mL medium with compound in the desired concentration was dispensed into 60 mm sterile petri-plates. After solidification, each plate was seeded with 5 mm size mycelial disc taken form periphery of actively growing virulent culture plate. Plates were incubated in growth chambers at 25° C. temperature and 70% relative humidity for seven days and radial growth was measured.

Phakopsora pachyrhizi = Phakopsora pachyrhizi test in soybean, preventive spray; assay type: in vivo; conditions: preventive spray on soybean plants, inoculated one day after treatment, greenhouse 25° C., 90% relative humidity, read-out: control (efficacy, disease severity rating) compared to the untreated check
Method in brief: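 Greenhouse soybean plants were sprayed preventively at the stated rates, with compound in 2% DMSO/acetone diluted in water. They were inoculated one day later with a 2.1×10^6 P. pachyrhizi spore suspension and held at 25° C and 90% RH. Severity (0–100%) was rated 3, 7, 10 and 15 days after application, giving % control versus untreated plants.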

Botrytis cinerea = Botrytis cinerea (gray mold) radial mycelial growth on Potato Dextrose Agar; assay type: cell-based; conditions: 168 h, 22° C., 90% relative humidity, seven days, read-out: control compared to the untreated check
Procedure: Example 3: Botrytis cinerea (Gray Mold)
as §1, with “22°” for “25°”, “90%” for “70%”

Alternaria solani = Alternaria solani (early blight of tomato/potato) radial mycelial growth on Potato Dextrose Agar; assay type: cell-based; conditions: 168 h, Potato Dextrose Agar, 25° C., 60% relative humidity, seven days, read-out: control compared to the untreated check
Procedure: Example 4: Alternaria solani (Early Blight of Tomato/Potato)
as §1, with “solidification” for “solidification,”, “60%” for “70%”

Colletotrichum capsici = Colletotrichum capsici (anthracnose) radial mycelial growth on Potato Dextrose Agar; assay type: cell-based; conditions: Colletotrichum truncatum, 168 h, 25° C., 60% relative humidity, seven days, read-out: control compared to the untreated check
Procedure: Example 5: Colletotrichum capsici (Anthracnose)
as §1, with “60%” for “70%”

Row | SMILES | inhibition of growth at 300 ppm (Pyricularia oryzae) [%] | control compared to the untreated check (Septoria lycopersici) | pest or weed control at 500 ppm (Phakopsora pachyrhizi) [%] | inhibition of growth at 300 ppm (Botrytis cinerea) [%] | inhibition of growth at 300 ppm (Alternaria solani) [%] | inhibition of growth at 300 ppm (Colletotrichum capsici) [%]
1 | O=S1(=Nc2ccc(-c3noc(C(F)(F)F)n3)cc2)CCCCC1 [Compound 134, 1-((4-(5-(trifluoromethyl)-1,2,4-oxadiazol-3-yl)phenyl)imino)hexahydro-1λ^6-thiopyran 1-oxide] | > 70 | more than 70% | – | – | – | –
2 | COc1ccc(S(C)(=O)=NCc2ccc(-c3noc(C(F)(F)F)n3)cc2)cc1 (centres unmarked) [Compound 23, (4-methoxyphenyl)(methyl)((4-(5-(trifluoromethyl)-1,2,4-oxadiazol-3-yl)benzyl)imino)-λ^6-sulfanone] | > 70 | – | > 90 | > 70 | > 70 | > 70
3 | CS(=O)(=Nc1ccc(-c2noc(C(F)(F)F)n2)cc1)c1ccncc1 (centres unmarked) [Compound 15, methyl(pyridin-4-yl)((4-(5-(trifluoromethyl)-1,2,4-oxadiazol-3-yl)phenyl)imino)-λ^6-sulfanone] | > 70 | – | > 90 | > 70 | > 70 | > 70
4 | CS(=O)(=Nc1ccc(-c2noc(C(F)(F)F)n2)cc1)c1ccc(Cl)cc1 (centres unmarked) [Compound 13, (4-chlorophenyl)(methyl)((4-(5-(trifluoromethyl)-1,2,4-oxadiazol-3-yl)phenyl)imino)-λ^6-sulfanone] | > 70 | – | – | – | > 70 | > 70
5 | O=C(NS(=O)(=O)c1ccc(Cl)cc1Cl)c1ccc(-c2noc(C(F)(F)F)n2)cc1 [Compound 156, N-((2,4-dichlorophenyl)sulfonyl)-4-(5-(trifluoromethyl)-1,2,4-oxadiazol-3-yl)benzamide] | – | – | – | > 70 | – | > 70
6 | CS(=O)(=Nc1ccc(-c2noc(C(F)(F)F)n2)cc1)c1ccc(F)cc1 (centres unmarked) [Compound 17, (4-fluorophenyl)(methyl)((4-(5-(trifluoromethyl)-1,2,4-oxadiazol-3-yl)phenyl)imino)-λ^6-sulfanone] | > 70 | – | > 90 | > 70 | > 70 | > 70
7 | CS(=O)(=Nc1ccc(-c2noc(C(F)(F)F)n2)cc1)c1ccccc1 (centres unmarked) [Compound 18, methyl(phenyl)((4-(5-(trifluoromethyl)-1,2,4-oxadiazol-3-yl)phenyl)imino)-λ^6-sulfanone] | > 70 | – | > 90 | – | > 70 | > 70
8 | O=S1(=Nc2ccc(-c3noc(C(F)(F)F)n3)cc2)CCOCC1 [Compound 133, 4-((4-(5-(trifluoromethyl)-1,2,4-oxadiazol-3-yl)phenyl)imino)-1,4λ^6-oxathiane 4-oxide] | > 70 | – | – | > 70 | – | > 70
9 | CS(=O)(=NCc1ccc(-c2noc(C(F)(F)F)n2)cc1)c1ccc(Br)cc1 (centres unmarked) [Compound 22, (4-bromophenyl)(methyl)((4-(5-(trifluoromethyl)-1,2,4-oxadiazol-3-yl)benzyl)imino)-λ^6-sulfanone] | > 70 | – | > 90 | – | – | > 70
